# Test results reported in patent US6737383B1, “Herbicidal oxadiazolidines” (priority 1999, dated 2004).
# How the values were obtained:
# [1] = system: bedstraw; test: Test B pre/postemergence bedstraw; format: in vivo, Galium aparine
# In short: (§1)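 Herbicidal effect was estimated by eye on a ten-point control scale after plants spent twelve to sixteen days in a greenhouse following soil or foliar treatment. Foliar sprays targeted plants at one to four leaves; all doses were formulated in a non-phytotoxic solvent with surfactant.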
# [2] = system: blackgrass; test: Test B pre/postemergence blackgrass; format: in vivo, Alopecurus myosuroides
# In short: as §1
# [3] = system: surinam grass; test: Test B pre/postemergence surinam grass; format: in vivo, Brachiaria decumbens
# In short: as §1
# [4] = system: cocklebur; test: Test B pre/postemergence cocklebur; format: in vivo, Xanthium strumarium
# In short: as §1
# [5] = system: corn; test: Test B pre/postemergence corn; format: in vivo, Zea mays
# In short: as §1
# [6] = system: giant foxtail; test: Test B pre/postemergence giant foxtail; format: in vivo, Setaria faberii
# In short: as §1
# [7] = system: morningglory; test: Test B pre/postemergence morningglory; format: in vivo, Ipomoea hederacea
# In short: as §1
# [8] = system: pigweed; test: Test B pre/postemergence pigweed; format: in vivo, Amaranthus retroflexus
# In short: as §1
# [9] = system: rape; test: Test B pre/postemergence rape; format: in vivo, Brassica napus
# In short: as §1
# [10] = system: sugar beet; test: Test B pre/postemergence sugar beet; format: in vivo, Beta vulgaris
# In short: as §1
# [11] = system: velvetleaf; test: Test B pre/postemergence velvetleaf; format: in vivo, Abutilon theophrasti
# In short: as §1
# [12] = system: purple nutsedge; test: Test B pre/postemergence purple nutsedge; format: in vivo, Cyperus rotundus
# In short: as §1
# [13] = system: rice; test: Test B flood test rice; format: in vivo, Oryza sativa; conditions: Pre-emergence
# In short: (§2)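 Each value is a visual injury score relative to controls, with 10 meaning complete control and 0 no effect. Evaluation took place twelve to sixteen days after the 2-leaf-stage plants were treated and kept in the greenhouse.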
# [14] = system: duck salad; test: Test B flood test duck salad; format: in vivo, Heteranthera limosa; conditions: Pre-emergence
# In short: as §2
# [15] = system: bamyardgrass; test: Test B flood test barnyardgrass; format: in vivo, Echinochloa crus-galli; conditions: Pre-emergence
# In short: as §2
# [16] = Preemergence, Rate 62 g/ha, scale of 0 to 10 where 0 is no effect and 10 is complete control
# [17] = Preemergence, Rate 250 g/ha, scale of 0 to 10 where 0 is no effect and 10 is complete control
# [18] = Preemergence, Rate 500 g/ha, scale of 0 to 10 where 0 is no effect and 10 is complete control
# [19] = Rate 62 g/ha, Postemergence, scale 0 to 10 (0 no effect, 10 complete control)
# [20] = Rate 125 g/ha, Postemergence, scale of 0 to 10 where 0 is no effect and 10 is complete control
# [21] = Rate 250 g/ha, Postemergence, scale of 0 to 10 where 0 is no effect and 10 is complete control
# [22] = Rate 500 g/ha, Postemergence, scale 0 to 10, 0 no effect, 10 complete control
# [23] = Rate 1000 g/ha, scale 0 to 10 (0 no effect, 10 complete control)
# [24] = Rate 125 g/ha, flood test species, scale 0 to 10 where 0 is no effect and 10 is complete control
# [25] = Rate 250 g/ha, flood-test species, scale 0 to 10, 0 is no effect, 10 is complete control
# [26] = Rate 500 g/ha, flood test species, scale 0 to 10 (0 no effect, 10 complete control)
structure (smiles),measurement,setting,value
CCN(C(=O)n1oc(=O)n(C2CCCCC2)c1=O)C1CCCCC1 [Compound 308],Bedstraw plant response rating,[1]; [16],0
same,Bedstraw plant response rating (0 to 10 scale),"[1]; Preemergence, Rate 125 g/ha",0
same,Bedstraw plant response rating,[1]; [17],0
same,Bedstraw plant response rating,[1]; [18],0
same,Bedstraw plant response rating,[1]; [19],0
same,Bedstraw plant response rating,[1]; [20],0
same,"Plant response rating, Bedstraw",[1]; [21],0
same,Bedstraw plant response rating,[1]; [22],0
same,Blackgrass plant response rating,[2]; [16],0
same,Blackgrass plant response rating (0 to 10 scale),"[2]; Preemergence, Rate 125 g/ha",0
same,Blackgrass plant response rating,[2]; [17],0
same,Blackgrass plant response rating,[2]; [18],0
same,Blackgrass plant response rating,[2]; [19],0
same,Blackgrass plant response rating,[2]; [20],0
same,"Plant response rating, Blackgrass",[2]; [21],0
same,Blackgrass plant response rating,[2]; [22],0
same,B. signalgrass plant response rating,[3]; [16],0
same,"B. signalgrass plant response rating (0 to 10 scale, 0 is no effect, 10 is complete control)","[3]; Preemergence, Rate 125 g/ha",0
same,B. signalgrass plant response rating,[3]; [17],0
same,B. signalgrass plant response rating,[3]; [18],0
same,B. signalgrass plant response rating,[3]; [19],0
same,B. signalgrass plant response rating,[3]; [20],0
same,"Plant response rating, B. signalgrass",[3]; [21],0
same,B. signalgrass plant response rating,[3]; [22],0
same,Cocklebur plant response rating,[4]; [16],0
same,Cocklebur plant response rating (0 to 10 scale),"[4]; Preemergence, Rate 125 g/ha",0
same,Cocklebur plant response rating,[4]; [17],0
same,Cocklebur plant response rating,[4]; [18],0
same,Cocklebur plant response rating,[4]; [19],0
same,Cocklebur plant response rating,[4]; [20],0
same,"Plant response rating, Cocklebur",[4]; [21],0
same,Cocklebur plant response rating,[4]; [22],0
same,Corn plant response rating,[5]; [16],0
same,Corn plant response rating (0 to 10 scale),"[5]; Preemergence, Rate 125 g/ha",0
same,Corn plant response rating,[5]; [17],0
same,Corn plant response rating,[5]; [18],0
same,Corn plant response rating,[5]; [19],0
same,Corn plant response rating,[5]; [20],0
same,"Plant response rating, Corn",[5]; [21],0
same,Corn plant response rating,[5]; [22],0
same,Giant foxtail plant response rating,[6]; [16],0
same,Giant foxtail plant response rating (0 to 10 scale),"[6]; Preemergence, Rate 125 g/ha",0
same,Giant foxtail plant response rating,[6]; [17],0
same,Giant foxtail plant response rating,[6]; [18],0
same,Giant foxtail plant response rating,[6]; [19],0
same,Giant foxtail plant response rating,[6]; [20],0
same,"Plant response rating, Giant foxtail",[6]; [21],0
same,Morningglory plant response rating,[7]; [16],0
same,Morningglory plant response rating (0 to 10 scale),"[7]; Preemergence, Rate 125 g/ha",0
same,Morningglory plant response rating,[7]; [17],0
same,Morningglory plant response rating,[7]; [18],0
same,Morningglory plant response rating,[7]; [19],0
same,Morningglory plant response rating,[7]; [20],0
same,"Plant response rating, Morningglory",[7]; [21],2
same,Redroot pigweed plant response rating,[8]; [16],0
same,Redroot pigweed plant response rating (0 to 10 scale),"[8]; Preemergence, Rate 125 g/ha",0
same,Redroot pigweed plant response rating,[8]; [17],0
same,Redroot pigweed plant response rating,[8]; [18],0
same,Redroot pigweed plant response rating,[8]; [19],0
same,Redroot pigweed plant response rating,[8]; [20],0
same,"Plant response rating, Redroot pigweed",[8]; [21],0
same,Rape plant response rating,[9]; [16],0
same,Rape plant response rating (0 to 10 scale),"[9]; Preemergence, Rate 125 g/ha",0
same,Rape plant response rating,[9]; [17],0
same,Rape plant response rating,[9]; [18],0
same,Rape plant response rating,[9]; [19],0
same,Rape plant response rating,[9]; [20],0
same,"Plant response rating, Rape",[9]; [21],0
same,Sugarbeets plant response rating,[10]; [16],0
same,Sugarbeets plant response rating (0 to 10 scale),"[10]; Preemergence, Rate 125 g/ha",0
same,Sugarbeets plant response rating,[10]; [17],0
same,Sugarbeets plant response rating,[10]; [18],0
same,Sugarbeets plant response rating,[10]; [19],0
same,Sugarbeets plant response rating,[10]; [20],0
same,"Plant response rating, Sugarbeets",[10]; [21],0
same,Velvetleaf plant response rating,[11]; [16],0
same,Velvetleaf plant response rating (0 to 10 scale),"[11]; Preemergence, Rate 125 g/ha",0
same,Velvetleaf plant response rating,[11]; [17],0
same,Velvetleaf plant response rating,[11]; [18],0
same,Velvetleaf plant response rating,[11]; [19],0
same,Velvetleaf plant response rating,[11]; [20],0
same,"Plant response rating, Velvetleaf",[11]; [21],0
same,Nutsedge plant response rating,[12]; [16],0
same,Nutsedge plant response rating (0 to 10 scale),"[12]; Preemergence, Rate 125 g/ha",0
same,Nutsedge plant response rating,[12]; [17],0
same,Nutsedge plant response rating,[12]; [18],0
same,Nutsedge plant response rating,[12]; [19],0
same,Nutsedge plant response rating,[12]; [20],0
same,"Plant response rating, Nutsedge",[12]; [21],0
same,Rice plant response rating,[13]; [23],0
same,Rice plant response rating,[13]; [24],0
same,Rice plant response rating,[13]; [25],0
same,Rice plant response rating,[13]; [26],0
same,Ducksalad plant response rating,[14]; [23],0
same,Ducksalad plant response rating,[14]; [24],0
same,Ducksalad plant response rating,[14]; [25],0
same,Ducksalad plant response rating,[14]; [26],0
same,Barnyardgrass plant response rating,[15]; [23],0
same,Barnyardgrass plant response rating,[15]; [24],0
same,Barnyardgrass plant response rating,[15]; [25],0
same,Barnyardgrass plant response rating,[15]; [26],0
